From patent publication US10881611B2, “Extracellular vesicles derived from osteoblastic lineage cells for therapeutic and diagnostic use” (Fondazione Città Della Speranza—Onlus, priority 2015, dated 2021)

What was measured:
[1] = test system: human osteosarcoma cell lines; assay: Cell viability assay (MTT) of human osteosarcoma cell lines; type: cell-based
Description: Osteosarcoma cell lines sensitivity to anti-tumour drug Doxorubicin was evaluated by treating the cells with different Doxorubicin concentrations and carrying out cell viability assay with MTT at different times.
RANKL+ O-EVs were incubated with Doxorubicin (300 mg/ml) in vitro, then subjected to FACS. RANKL+ O-EV-associated doxorubicin confers red fluorescence to the nanoparticles, enabling FACS isolation thereof (FIG. 11).
Human osteosarcoma cell lines were treated with free Doxorubicin (235 ng, corresponding to a concentration of 1 micromole/litre in the medium) or with RANKL+ O-EV-associated Doxorubicin (100,000 FACS-isolated nanoparticles, containing 3.2 ng of Doxorubicin, corresponding to a concentration of 10 nanomole/litre in the medium). […] However, the treatment with anti-tumour drug-loaded RANKL+ O-EVs allowed to obtain this effect with a Doxorubicin dose 100-fold lower than the free drug (Table 1 below).

mature osteoclasts = assay: Mature osteoclasts treated for 48 hours, TRAcP colouring; type: cell-based, mouse
Source text: Primary mouse osteoclasts are obtained by medullar macrophages differentiation isolated from CD1 long bones of age comprised within 7-10 days. The litter is kept and maintained according to the legal requirements, under the supervision of a veterinary responsible. When experimentally needed, the animals are sacrificed according to the laws and the long bones are explanted and cleaned from soft tissues. The bones are then submitted to mechanical disruption in order to free the bone marrow. The cells obtained are diluted in PBS and stratified 1:1 on Histopaque (Sigma-Aldrich), and centrifuged for 30′ at 450 g. The formed buffy coat is collected and washed with PBS. […] The osteoclastic phenotype is routinely assessed by biochemical assay to tartarate resistant acidic phosphatase positivity on a cell aliquot fixed in PFA/PBS (4% v/v). […]
The sensitivity of mature osteoclasts to the antitumor medicament doxorubicin has been evaluated by treating the cells with different doxorubicin concentrations (0.1-0.2-0.5-1-2-4 μM) and carrying out TRAcP colouring after fixing. […]
The sensitivity of mature osteoclasts to the medicament zolendronate has been assessed by treating the cells with different zolendronate concentrations (10^−8, 5×10^−8, 10^−7, 5×10^−7, 10^−6, 5×10^−6, 10^−5, 5×10^−5, 10^−4 M) and carrying out TRAcP colouring after fixing. […]

primary osteoblasts = assay: FACS evaluation of the RANKL-positive O-EV fraction released by osteoblasts under parathyroid hormone stimulation; type: cell-based, murine; settings: osteoblasts subjected to parathyroid hormone stimulation (10^−8 M human recombinant), p=0.037; without stimulation 53.06+3.47%
Description: Murine osteoblasts, obtained as previously described, are plated in 150 cm^2 culture flasks and grown in DMEM culture medium containing glutamine (5 mM), penicillin (1 mg/ml), streptomycin (2 mg/ml) and American fetal bovine serum (10% v/v) (FBS), and kept in incubator under 5% CO2. Upon reaching 70% confluence, cells were abundantly washed with PBS (3 times) to remove serum residues, and kept 24 hours in glutamine (5 mM)/penicillin (1 mg/ml), streptomycin (2 mg/ml) DMEM medium. […]
At the end of the procedure, the pellet obtained is resuspended in […] PBS and incubated with 10 microM CMFDA, at 37° C. for 30 min. The pellet is then brought to maximum volume with PBS in ultra-centrifuge tube, centrifuged at 30,000 RPM for 70 minutes at 4° C., and evaluated for quantity and quality by cytofluorimetric analysis. […]
FACScanto II (BD Biosciences) was resorted to for cytofluorimetric analysis. […] Moreover, the prescribed fluorescence channel compensations are carried out. […]
For evaluation of RANKL expression, CMFDA positive RANKL+ O-EV pellet is incubated for 30 min with mouse anti-RANKL antibody conjugated with Phycoerythrin (PE) (1:100) in PBS/BSA (1%). RANKL+ O-EVs are then FACS analysed and CMFDA/PE double-positive fraction is isolated for further evaluations. […]

[2] = human osteosarcoma cell lines, Table 1

How did the “Doxorubicin concentration at which toxicity on tumour cells manifests” value ([1]; MTT at different times, osteosarcoma cell lines) turn out when COc1cccc2c1C(=O)c1c(O)c3c(c(O)c1C2=O)C[C@@](O)(C(=O)CO)C[C@@H]3O[C@H]1C[C@H](N)[C@H](O)[C@H](C)O1 [Doxorubicin] was run?
Its value is greater than 1 µmol/L.

And the “death of the neoplastic cells” value ([1]; free Doxorubicin 235 ng, 1 micromole/litre in the medium)?
Its value is “about 80%”.

What about the “Doxorubicin amount giving death of about 80% of the neoplastic cells” value [1, 2] of the same molecule?
The value was 235 ng.

And the “Doxorubicin concentration in the medium giving death of about 80% of the neoplastic cells” value [1, 2]?
Its value is 1 µM.

What about the “doxorubicin concentration above which toxicity on mature osteoclasts shows” value (mature osteoclasts; 0.1-4 μM tested) of the same molecule?
Its value is “higher than 0.2 micromolar”.

O=P(O)(O)C(O)(Cn1ccnc1)P(=O)(O)O [zolendronate] was tested. Which “zolendronate concentration above which toxicity on mature osteoclasts is shown” value (mature osteoclasts; 10^−8 to 10^−4 M tested) did it give?
The value was “higher than 10^−7 M”.

B1: parathyroid hormone: human recombinant parathyroid hormone used at 10^−8 M to stimulate osteoblasts (protein, UniProt P01270 32-115, looked up)
Parathyroid hormone: SVSEIQLMHNLGKHLNSMERVEWLRKKLQDVHNFVALGAPLAPRDAGSQRPRKKEDNVLVESHEKSLGEADKADVNVLTKAKSQ
modifications: Parathyroid hormone
notes: human recombinant parathyroid hormone used at 10^−8 M to stimulate osteoblasts
B1 was tested. Which “RANKL-positive O-EV subpopulation” value (primary osteoblasts) did it give?
The value was 63.6±4.20%.
